{"source": "patent US10709724B2", "about": "“Methods of treating mitochondrial dysfunction” (Ecole Polytechnique Federale de Lausanne (EPFL), priority 2011, dated 2020)", "key": {"[1]": {"system": "C2C12 myotubes, Hepa1.6 and HEK293T cells", "assay": "Total intracellular NAD+ content after NR in cell lines", "assay_type": "cell-based, murine and human", "conditions": "24 hrs", "excerpt": "Murine Hepa1.6 and HEK293T cells were maintained in 4.5 g/L glucose DMEM, 10% FCS. For the transfection of HEK293T cells JetPei was used (Polyplus transfections, Illkirch, France) according to the description of the company. PARP-2 depletion and overexpression took place as described in (Bai et al. 2007).\nC2C12 cells were maintained in 4.5 g/L glucose DMEM, 10% FCS and were differentiated in 4.5 g/L glucose DMEM, 2% horse serum for 2 days, when cells were considered myofibers. PARP-2 was depleted from C2C12 cells using lentiviral shRNA system (MISSION Lentiviral Vectors, Sigma-Aldrich). The vectors contained the interfering and control sequences described in (Bai et al. 2007). C2C12 cells were transduced with 20 MOI virus and were selected with […] puromycin. Cells withstanding puromycin selection were subcultured. […] The efficiency of knock-down at the mRNA level was assessed by RT-qPCR.\nNAD^+ NAM Determination. NAD^+ levels in cultured cells were determined using a commercial kit (Enzychrom™, BioAssays Systems, CA). For tissue samples NAD^+ and NAM levels were determined as described in (Sauve et al., 2005). […] Clear supernatant was injected onto HPLC C-18 column with 20 mM ammonium acetate eluent to separate NAD^+ and NAM from other cellular components, NAD^+ and NAM peaks (260 nm absorbance) were collected. […]"}, "SIRT3": {"system": "SIRT3", "assay": "SIRT3 activity (Ndufa9, SOD2 acetylation) in NR-treated HEK293T cells", "assay_type": "cell-based, human", "conditions": "0.5 mM, 24 hrs", "method": "Immunoprecipitation, SDS-PAGE, Western Blotting. Cells were lysed in lysis buffer (50 mM Tris, […], EDTA 1 mM, NP40 1%, nicotinamide 5 mM, Na-butyrate 1 in M, protease inhibitors pH7.4). Proteins were separated by SDS-PAGE and transferred onto nitrocellulose membranes. The origin of the primary and secondary antibodies used can be found as supplemental experimental procedures. Reactions were developed by enhanced chemiluminescence (Amersham, Little Chalfont, UK), PGC-1α, FOXO1 and Ndufa9 acetylation levels were analyzed by immunoprecipitation from cellular or nuclear lysates of tissues with anti-PGC-1α (Millipore), anti-FOXO1 (Cell Signaling, Danvers, Mass., USA) and anti-Ndufa9 (Abcam) antibody followed by Western blot using an acetyl-lysine antibody (Cell Signaling) that was normalized to total PGC-1a/FOXO1/Ndufa9 levels (Lagouge et al., 2006; Rodgers et al., 2005). In HEK293T cells HA-tagged PGC-1α was overexpressed and was immunoprecipitated using an anti-HA. In C2C12 myotubes, FLAG-HA tagged PGC-1α was introduced through adenoviral delivery 2 days before treatments, then IP was performed using anti-FLAG antibody and samples were processed as described. All blots were quantified by densitometry using ImageJ software. Poly(ADP-Ribose) detection was performed as previously described with slight modifications (Bai et al., PARP-1 inhibition increases mitochondrial metabolism through SIRT1 activation. Cell Metab 13, 461-468. (2011)) Briefly, PAR was detected by using a monoclonal anti-PAR antibody (Alexis, Lausanne Switzerland) by Western blotting of total protein lysates, using either […] of total worm protein lysates, […] of liver protein lysate or 200 g of muscle total protein extracts. PGC-1 acetylation was determined using PGC-1 immunoprecipitates from 2 mg of protein extracts, as described in Canto et al. (Canto et al., AMPK regulates energy expenditure by modulating NAD+ metabolism and SIRT1 activity. Nature 458, 1056 (2009)). […]"}, "SIRT1": {"system": "SIRT1", "assay": "SIRT1 activity (PGC-1α acetylation) and SIRT1 protein in C2C12 myotubes", "assay_type": "cell-based", "method": "Immunoprecipitation, SDS-PAGE, Western Blotting. Cells were lysed in lysis buffer (50 mM Tris, […], EDTA 1 mM, NP40 1%, nicotinamide 5 mM, Na-butyrate 1 in M, protease inhibitors pH7.4). Proteins were separated by SDS-PAGE and transferred onto nitrocellulose membranes. The origin of the primary and secondary antibodies used can be found as supplemental experimental procedures. Reactions were developed by enhanced chemiluminescence (Amersham, Little Chalfont, UK), PGC-1α, FOXO1 and Ndufa9 acetylation levels were analyzed by immunoprecipitation from cellular or nuclear lysates of tissues with anti-PGC-1α (Millipore), anti-FOXO1 (Cell Signaling, Danvers, Mass., USA) and anti-Ndufa9 (Abcam) antibody followed by Western blot using an acetyl-lysine antibody (Cell Signaling) that was normalized to total PGC-1a/FOXO1/Ndufa9 levels (Lagouge et al., 2006; Rodgers et al., 2005). In HEK293T cells HA-tagged PGC-1α was overexpressed and was immunoprecipitated using an anti-HA. In C2C12 myotubes, FLAG-HA tagged PGC-1α was introduced through adenoviral delivery 2 days before treatments, then IP was performed using anti-FLAG antibody and samples were processed as described. All blots were quantified by densitometry using ImageJ software. Poly(ADP-Ribose) detection was performed as previously described with slight modifications (Bai et al., PARP-1 inhibition increases mitochondrial metabolism through SIRT1 activation. Cell Metab 13, 461-468. (2011)) Briefly, PAR was detected by using a monoclonal anti-PAR antibody (Alexis, Lausanne Switzerland) by Western blotting of total protein lysates, using either […] of total worm protein lysates, […] of liver protein lysate or 200 g of muscle total protein extracts. PGC-1 acetylation was determined using PGC-1 immunoprecipitates from 2 mg of protein extracts, as described in Canto et al. (Canto et al., AMPK regulates energy expenditure by modulating NAD+ metabolism and SIRT1 activity. Nature 458, 1056 (2009))."}}, "data": [{"smiles": "NC(=O)c1ccc[n+]([C@@H]2O[C@H](CO)[C@@H](O)[C@H]2O)c1", "note": "[NR, nicotinamide riboside]", "values": [{"measurement": "ability to increase intracellular NAD+ compared with NMN and NA", "setting": "[1]; 0.5 mM", "result": "at least, similar to that of these other precursors"}, {"measurement": "intracellular NAD+ levels", "setting": "[1]", "result": "dose-dependently increased intracellular NAD^+ levels"}, {"measurement": "SOD2 activity", "setting": "SIRT3", "result": "enhanced SOD2 activity"}, {"measurement": "acetylation status of Ndufa9", "setting": "SIRT3", "result": "reduced the acetylation status"}, {"measurement": "acetylation status of SOD2", "setting": "SIRT3", "result": "reduced the acetylation status"}]}, {"smiles": "CN(C)CC(=O)Nc1ccc2[nH]c(=O)c3ccccc3c2c1", "note": "[PJ34]", "values": [{"measurement": "SIRT1 protein levels", "setting": "SIRT1; 24 hrs", "result": "did not change SIRT1 protein levels"}, {"measurement": "PGC-1α acetylation (SIRT1 activation)", "setting": "SIRT1; 24 hrs, dose-dependent (FIG. 6F)", "result": "deacetylation of PGC-1α"}, {"measurement": "SIRT1 function (PGC-1α acetylation) during H2O2 treatment", "setting": "SIRT1; H2O2 500 μM, 6 hrs, PJ34 1 μM", "result": "enhanced SIRT1 function"}, {"measurement": "SIRT1 protein levels during H2O2 treatment", "setting": "SIRT1; H2O2 500 μM, 6 hrs, PJ34 1 μM", "result": "SIRT1 protein levels did not change"}]}]}
